In PMC6277767, “Broad and Region-Specific Impacts of the Synthetic Cannabinoid CP 55,940 in Adolescent and Adult Female Mouse Brains” (Frontiers in Molecular Neuroscience, 2018):

System: CD1 female mouse brain lipidome
Assay: Brain-region lipid levels (HPLC/MS/MS lipidomics) 2 h after single i.p. 3 mg/kg CP 55,940 vs vehicle
Type: in vivo
Method: The Bloomington Institutional Animal Care and Use Committee of Indiana University reviewed and approved the animal procedures. Female mice from the CD1 strain were utilized to match our study examining THC’s effects on the brain lipidome ([Leishman et al., 2018]). Mice were given a single i.p. injection of either 3 mg/kg CP or 1:1:18 cremophor:ethanol:saline vehicle (please refer to the section “3 mg/kg CP Is Relevant for Synthetic Cannabinoid Abuse and Has Stronger Effects on the Female Mouse Brain Lipidome During Adolescence” for a justification of dose and use of female mice). Three different age groups were given injections: PND 35 and PND 50 adolescents, and adult mice (PND 113). At least eight mice in each age group received CP and at least eight received vehicle. Matching the THC study time course ([Leishman et al., 2018]), mice were sacrificed via rapid decapitation 2 h after injection. Brains were immediately removed and flash-frozen in liquid nitrogen, and then stored at -80°C until dissections were performed. Brains were dissected on an ice-cold dissection plate into the following regions: STR, HIPP, CER, THAL, CTX, HYP, MID, and STEM. These abbreviations for these brain areas will be used exclusively when discussing the results generated by these specific dissections. Each dissected area was immediately placed in liquid nitrogen and then stored at -80°C until used for lipid extraction.
Tissue extracts were performed as previously described ([Bradshaw et al., 2006]; [Stuart et al., 2013]; [Raboune et al., 2014]; [Leishman et al., 2016a],[b], [2017], [2018]). First, samples were shock frozen in liquid nitrogen, weighed, and transferred to a centrifuge tube. The mass of the largest sample was multiplied by 50 to determine how many milliliters of HPLC-grade methanol (Fisher, Fair Lawn, NJ, United States) to add. Then, samples were spiked with 500 pmol deuterium-labeled NAGly (d8NAGly; Cayman Chemical, Ann Arbor, MI, United States). Samples were placed on ice in darkness for 2 h then individually homogenized and centrifuged at 19,000 × g for 20 min at 20°C. Supernatants were diluted with HPLC water (purified in house) to make a solution of 75% water, 25% supernatant. Lipids were partially purified on C18 solid phase extraction columns (Agilent, Palo Alto, CA, United States). A series of four elutions with 1.5 mL of 60%, 75%, 85%, and 100% methanol were collected ([Stuart et al., 2013]; [Leishman et al., 2016a],[b], [2018]).
As previously described ([Bradshaw et al., 2006]; [Tan et al., 2006]; [Smoum et al., 2010]; [Stuart et al., 2013]; [Tortoriello et al., 2013]; [Raboune et al., 2014]; [Leishman et al., 2016a],[b], [2017], [2018]), samples were analyzed using an Applied Biosystems API 3000 triple quadrupole mass spectrometer with electrospray ionization (Foster City, CA, United States). Using an Agilent XDB-C18 reversed phase analytical column and optimized mobile phase gradients, 20 μL from each elution were chromatographed. Two Shimadzu 10ADvp pumps (Columbia, MD, United States) provided the pressure for gradient elution. Mobile phase A: 20% methanol, 80% water (v/v) and 1 mM ammonium acetate (Sigma, St. Louis, MO, United States). Mobile phase B: 100% methanol, 1 mM ammonium acetate. Every method run began with 0% mobile phase B, reached 100% mobile phase B flowing at 0.2 mL/min, and gradually returned to 0% mobile phase B.
This screening library will be referred to as the lipidome when discussing data from this study. HPLC/MS/MS data were analyzed using Analyst software (Applied Biosystems) ([Bradshaw et al., 2006]; [Tan et al., 2006]; [Stuart et al., 2013]; [Tortoriello et al., 2013]; [Raboune et al., 2014]; [Leishman et al., 2016a],[b], [2017], [2018]). Chromatograms (Supplementary Figure 3) were generated by determining the retention time of analytes from the analytical column with a [M-1] or [M+1] parent peak and a fragmentation peak corresponding to the programmed values. […]

[1] = striatum, adult, 3 mg/kg CP 55,940, one-way ANOVA p .007
[2] = striatum, adult, 3 mg/kg CP 55,940, one-way ANOVA p .015
[3] = striatum, adult, 3 mg/kg CP 55,940, one-way ANOVA p .017
[4] = striatum, adult, 3 mg/kg CP 55,940, one-way ANOVA p .019
[5] = striatum, adult, 3 mg/kg CP 55,940, one-way ANOVA p .043
[6] = striatum, adult, 3 mg/kg CP 55,940, one-way ANOVA p .071
[7] = striatum, adult, 3 mg/kg CP 55,940, one-way ANOVA p .075
[8] = striatum, PND 35, 3mg/kg CP 55,940
[9] = thalamus, PND 50, 3 mg/kg CP 55,940

CCCCCCC(C)(C)c1ccc([C@@H]2C[C@H](O)CC[C@H]2CCCO)c(O)c1 [CP 55,940]
N-docosahexaenoyl ethanolamine, Direction (relative to Veh) [1]: ↓ | N-docosahexaenoyl ethanolamine, Magnitude (x Veh level) [1]: 0.75 x Veh level | N-linoleoyl ethanolamine, Direction (relative to Veh) [2]: ↓ | N-linoleoyl ethanolamine, Magnitude (x Veh level) [2]: 0.68 x Veh level | N-arachidonoyl ethanolamine, Direction (relative to Veh) [3]: ↓ | N-arachidonoyl ethanolamine, Magnitude (x Veh level) [3]: 0.66 x Veh level | Arachidonic acid, Direction (relative to Veh) [4]: ↓ | Arachidonic acid, Magnitude (x Veh level) [4]: 0.87 x Veh level | N-oleoyl ethanolamine, Direction (relative to Veh) [5]: ↓ | N-oleoyl ethanolamine, Magnitude (x Veh level) [5]: 0.65 x Veh level | N-oleoyl leucine Direction (relative to Veh) [5]: ↑ | N-oleoyl leucine Magnitude (x Veh level) [5]: 1.20 x Veh level | 2-arachidonoyl glycerol, Direction (relative to Veh) [6]: ↓ | 2-arachidonoyl glycerol, Magnitude (x Veh level) [6]: 0.78 x Veh level | N-palmitoyl serine, Direction (relative to Veh) [7]: ↓ | N-palmitoyl serine, Magnitude (x Veh level) [7]: 0.79 x Veh level | 2-arachidonoyl glycerol: Direction (relative to Veh) [8]: ↓ | 2-arachidonoyl glycerol: Magnitude (x Veh level) [8]: 0.70 x Veh level | 2-linoleoyl glycerol: Direction (relative to Veh) [8]: ↓ | 2-linoleoyl glycerol: Magnitude (x Veh level) [8]: 0.57 x Veh level | 2-oleoyl glycerol: Direction (relative to Veh) [8]: ↓ | 2-oleoyl glycerol: Magnitude (x Veh level) [8]: 0.86 x Veh level | N-arachidonoyl GABA: Direction (relative to Veh) [8]: ↓ | N-arachidonoyl GABA: Magnitude (x Veh level) [8]: 0.66 x Veh level | N-arachidonoyl alanine: Direction (relative to Veh) [8]: ↓ | N-arachidonoyl alanine: Magnitude (x Veh level) [8]: 0.77 x Veh level | N-arachidonoyl glycine: Direction (relative to Veh) [8]: ↓ | N-arachidonoyl glycine: Magnitude (x Veh level) [8]: 0.87 x Veh level | N-arachidonoyl phenylalanine: Direction (relative to Veh) [8]: ↓ | N-arachidonoyl phenylalanine: Magnitude (x Veh level) [8]: 0.83 x Veh level | N-arachidonoyl serine: Direction (relative to Veh) [8]: ↓ | N-arachidonoyl serine: Magnitude (x Veh level) [8]: 0.64 x Veh level | N-arachidonoyl taurine: Direction (relative to Veh) [8]: ↓ | N-arachidonoyl taurine: Magnitude (x Veh level) [8]: 0.91 x Veh level | N-arachidonoyl tyrosine: Direction (relative to Veh) [8]: ↓ | N-arachidonoyl tyrosine: Magnitude (x Veh level) [8]: 0.77 x Veh level | N-docosahexaenoyl GABA: Direction (relative to Veh) [8]: ↓ | N-docosahexaenoyl GABA: Magnitude (x Veh level) [8]: 0.68 x Veh level | N-docosahexaenoyl alanine: Direction (relative to Veh) [8]: ↓ | N-docosahexaenoyl alanine: Magnitude (x Veh level) [8]: 0.72 x Veh level | N-docosahexaenoyl ethanolamine: Direction (relative to Veh) [8]: ↓ | N-docosahexaenoyl ethanolamine: Magnitude (x Veh level) [8]: 0.74 x Veh level | N-docosahexaenoyl leucine: Direction (relative to Veh) [8]: ↑ | N-docosahexaenoyl leucine: Magnitude (x Veh level) [8]: 1.46 x Veh level | N-docosahexaenoyl serine: Direction (relative to Veh) [8]: ↓ | N-docosahexaenoyl serine: Magnitude (x Veh level) [8]: 0.68 x Veh level | N-oleoyl GABA: Direction (relative to Veh) [8]: ↓ | N-oleoyl GABA: Magnitude (x Veh level) [8]: 0.76 x Veh level | N-oleoyl alanine: Direction (relative to Veh) [8]: ↓ | N-oleoyl alanine: Magnitude (x Veh level) [8]: 0.89 x Veh level | N-oleoyl ethanolamine: Direction (relative to Veh) [8]: ↓ | N-oleoyl ethanolamine: Magnitude (x Veh level) [8]: 0.60 x Veh level | N-oleoyl glycine: Direction (relative to Veh) [8]: ↓ | N-oleoyl glycine: Magnitude (x Veh level) [8]: 0.88 x Veh level | N-palmitoyl ethanolamine: Direction (relative to Veh) [8]: ↓ | N-palmitoyl ethanolamine: Magnitude (x Veh level) [8]: 0.72 x Veh level | N-palmitoyl leucine: Direction (relative to Veh) [8]: ↑ | N-palmitoyl leucine: Magnitude (x Veh level) [8]: 1.17 x Veh level | N-palmitoyl valine: Direction (relative to Veh) [8]: ↑ | N-palmitoyl valine: Magnitude (x Veh level) [8]: 1.68 x Veh level | N-stearoyl alanine: Direction (relative to Veh) [8]: ↓ | N-stearoyl alanine: Magnitude (x Veh level) [8]: 0.90 x Veh level | N-stearoyl leucine: Direction (relative to Veh) [8]: ↓ | N-stearoyl leucine: Magnitude (x Veh level) [8]: 0.81 x Veh level | N-stearoyl serine: Direction (relative to Veh) [8]: ↓ | N-stearoyl serine: Magnitude (x Veh level) [8]: 0.86 x Veh level | N-stearoyl valine: Direction (relative to Veh) [8]: ↑ | N-stearoyl valine: Magnitude (x Veh level) [8]: 1.43 x Veh level | PGE2: Direction (relative to Veh) [8]: ↑ | PGE2: Magnitude (x Veh level) [8]: 1.25 x Veh level | PGF2α: Direction (relative to Veh) [8]: ↑ | PGF2α: Magnitude (x Veh level) [8]: 1.30 x Veh level | 2-arachidonoyl glycerol: Direction (relative to Veh) [9]: ↓ | 2-arachidonoyl glycerol: Magnitude (x Veh level) [9]: 0.84 x Veh level | 2-linoleoyl glycerol: Direction (relative to Veh) [9]: ↓ | 2-linoleoyl glycerol: Magnitude (x Veh level) [9]: 0.68 x Veh level | 2-oleoyl glycerol: Direction (relative to Veh) [9]: ↓ | 2-oleoyl glycerol: Magnitude (x Veh level) [9]: 0.78 x Veh level | 6-ketoPGF1α: Direction (relative to Veh) [9]: ↑ | 6-ketoPGF1α: Magnitude (x Veh level) [9]: 1.52 x Veh level | Arachidonic acid: Direction (relative to Veh) [9]: ↓ | Arachidonic acid: Magnitude (x Veh level) [9]: 0.77 x Veh level | Linoleic acid: Direction (relative to Veh) [9]: ↓ | Linoleic acid: Magnitude (x Veh level) [9]: 0.73 x Veh level | N-arachidonoyl GABA: Direction (relative to Veh) [9]: ↓ | N-arachidonoyl GABA: Magnitude (x Veh level) [9]: 0.68 x Veh level | N-arachidonoyl ethanolamine: Direction (relative to Veh) [9]: ↓ | N-arachidonoyl ethanolamine: Magnitude (x Veh level) [9]: 0.85 x Veh level | N-arachidonoyl glycine: Direction (relative to Veh) [9]: ↓ | N-arachidonoyl glycine: Magnitude (x Veh level) [9]: 0.63 x Veh level | N-arachidonoyl phenylalanine: Direction (relative to Veh) [9]: ↓ | N-arachidonoyl phenylalanine: Magnitude (x Veh level) [9]: 0.51 x Veh level | N-arachidonoyl taurine: Direction (relative to Veh) [9]: ↓ | N-arachidonoyl taurine: Magnitude (x Veh level) [9]: 0.88 x Veh level | N-arachidonoyl tyrosine: Direction (relative to Veh) [9]: ↓ | N-arachidonoyl tyrosine: Magnitude (x Veh level) [9]: 0.78 x Veh level | N-docosahexaenoyl GABA: Direction (relative to Veh) [9]: ↓ | N-docosahexaenoyl GABA: Magnitude (x Veh level) [9]: 0.70 x Veh level | N-linoleoyl GABA: Direction (relative to Veh) [9]: ↓ | N-linoleoyl GABA: Magnitude (x Veh level) [9]: 0.57 x Veh level | N-palmitoyl leucine: Direction (relative to Veh) [9]: ↑ | N-palmitoyl leucine: Magnitude (x Veh level) [9]: 1.27 x Veh level
